Target: T1, human factor Xa (Homo sapiens, UniProt P00742)
T1 construct: human factor Xa; purchased Enzyme Research Laboratories, Inc; South Bend, Ind
Test: Factor Xa assay (chromogenic, inhibition of factor Xa activity)
Type: biochemical
Conditions: purified human factor Xa 0.5 nM, chromogenic substrate S-2765 140 μM, 25° C., pH 7.8; Ki calculated from IC50 corrected for substrate competition; read-out: Ki (inhibition constant) for the inhibition of factor Xa
Protocol: Purified enzymes were used in chromogenic assays.
The assay was performed by pre-incubating the compound of formula I plus enzyme for 10 min. Then the assay was initiated by adding substrate to obtain a final volume of 100 μl. The initial velocity of chromogenic substrate hydrolysis was measured by the change in absorbance at 405 nm using a Bio-tek Instruments kinetic plate reader (Ceres UV900HDi) at 25° C. during the linear portion of the time course (usually 1.5 min after addition of substrate).

T1 sequence (P00742 235-488 limits assumed): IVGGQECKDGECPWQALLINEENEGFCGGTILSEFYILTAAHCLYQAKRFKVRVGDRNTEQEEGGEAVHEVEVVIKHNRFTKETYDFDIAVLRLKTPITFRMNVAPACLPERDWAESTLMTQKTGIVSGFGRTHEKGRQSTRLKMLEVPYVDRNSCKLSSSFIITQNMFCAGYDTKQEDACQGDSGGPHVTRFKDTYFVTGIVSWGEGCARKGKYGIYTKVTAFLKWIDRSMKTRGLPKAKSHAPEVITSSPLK
T1 sequence (P00742 41-179 partner limits assumed): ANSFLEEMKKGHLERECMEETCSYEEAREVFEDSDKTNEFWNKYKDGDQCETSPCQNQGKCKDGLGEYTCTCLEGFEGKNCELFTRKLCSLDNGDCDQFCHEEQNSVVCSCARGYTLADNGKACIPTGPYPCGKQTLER

SMILES	Ki [nM]
CC(C)N1CCC(NC(=O)c2cc3cc(C(=O)OCC4COC(=O)O4)ccc3n2Cc2cc(-c3ccc(Cl)s3)on2)CC1 (stereo not drawn) [Example 3, 1-[5-(5-Chloro-thiophen-2-yl)-isoxazol-3-ylmethyl]-2-(1-isopropyl-piperidin-4-ylcarbamoyl)-1H-indole-5-carboxylic acid 2-oxo-[1,3]dioxolan-4-ylmethyl ester]	14
CC(C)N1CCC(NC(=O)c2cc3c(C(=O)N4CC(O)C4)cccc3n2Cc2cc(-c3ccc(Cl)s3)on2)CC1 [Example 12, 1-[5-(5-Chloro-thiophen-2-yl)-isoxazol-3-ylmethyl]-4-(3-hydroxy-azetidine-1-carbonyl)-1H-indole-2-carboxylic acid (1-isopropyl-piperidin-4-yl)-amide]	14
CC(C)N1CCC(NC(=O)c2cc3cc(C(=O)N4CCCOCC4)ccc3n2CC(=O)Nc2ccc(Cl)cn2)CC1 [Example 4, 1-[(5-Chloro-pyridin-2-ylcarbamoyl)-methyl]-5-([1,4]oxazepane-4-carbonyl)-1H-indole-2-carboxylic acid (1-isopropyl-piperidin-4-yl)-amide]	22
COc1cccc(Cn2c(C(=O)NC3CCN(C(C)C)CC3)cc3c(C(=O)N4CC(O)C4)cccc32)c1 [Example 9, 4-(3-Hydroxy-azetidine-1-carbonyl)-1-(3-methoxy-benzyl)-1H-indole-2-carboxylic acid (1-isopropyl-piperidin-4-yl)-amide]	124
CC(C)N1CCC(NC(=O)c2cc3cc(C(=O)N4CCCC4CO)ccc3n2Cc2cc(-c3ccc(Cl)s3)on2)CC1 (stereo not drawn) [Example 2, 1-[5-(5-Chloro-thiophen-2-yl)-isoxazol-3-ylmethyl]-5-(2-hydroxymethyl-pyrrolidine-1-carbonyl)-1H-indole-2-carboxylic acid (1-isopropyl-piperidin-4-yl)-amide]	113
Cc1oc(=O)oc1COC(=O)c1ccc2c(c1)cc(C(=O)NC1CCN(C(C)C)CC1)n2Cc1cc(-c2ccc(Cl)s2)on1 [Example 15, 1-[5-(5-Chloro-thiophen-2-yl)-isoxazol-3-ylmethyl]-2-(1-isopropyl-piperidin-4-ylcarbamoyl)-1H-indole-5-carboxylic acid 5-methyl-2-oxo-[1,3]dioxol-4-ylmethyl ester]	11
COc1cccc(Cn2c(C(=O)NC3CCN(C(C)C)CC3)cc3c(C(=O)N4CC(OC)C4)cccc32)c1 [Example 8, 4-(3-Methoxy-azetidine-1-carbonyl)-1-(3-methoxy-benzyl)-1H-indole-2-carboxylic acid (1-isopropyl-piperidin-4-yl)-amide]	133
CC(C)N1CCC(NC(=O)c2cc3cc(C(=O)N4CCCOCC4)ccc3n2CC(=O)Nc2ccc(Cl)nc2)CC1 [Example 6, 1-[(6-Chloro-pyridin-3-ylcarbamoyl)-methyl]-5-([1,4]oxazepane-4-carbonyl)-1H-indole-2-carboxylic acid (1-isopropyl-piperidin-4-yl)-amide]	375
CC(C)ONC(=O)c1ccc2c(c1)cc(C(=O)NC1CCN(C(C)C)CC1)n2Cc1cc(-c2ccc(Cl)s2)on1 [Example 10, 1-[5-(5-Chloro-thiophen-2-yl)-isoxazol-3-ylmethyl]-1H-indole-2,5-dicarboxylic acid 5-(isopropoxy-amide) 2-[(1-isopropyl-piperidin-4-yl)-amide]]	24
CC(C)N1CCC(NC(=O)c2cc3cc(C(=O)N4CC(O)C4)ccc3n2Cc2cc(-c3ccc(Cl)s3)on2)CC1 [Example 1, 1-[5-(5-Chloro-thiophen-2-yl)-isoxazol-3-ylmethyl]-5-(3-hydroxy-azetidine-1-carbonyl)-1H-indole-2-carboxylic acid (1-isopropyl-piperidin-4-yl)-amide]	57

Now those with a lower Ki, led by results:

Ki [nM]	SMILES
2	COCCOC(=O)OC(C)OC(=O)c1cccc2c1cc(C(=O)NC1CCN(C(C)C)CC1)n2CC(=O)Nc1ccc(Cl)cn1 (stereo not drawn) [Example 13, 1-[(5-Chloro-pyridin-2-ylcarbamoyl)-methyl]-2-(1-isopropyl-piperidin-4-ylcarbamoyl)-1H-indole-4-carboxylic acid 1-(2-methoxy-ethoxycarbonyloxy)-ethyl ester]
9	COCCOC(=O)OC(C)OC(=O)c1ccc2c(c1)cc(C(=O)NC1CCN(C(C)C)CC1)n2CC(=O)Nc1ccc(Cl)cn1 (stereo not drawn) [Example 5, 1-[(5-Chloro-pyridin-2-ylcarbamoyl)-methyl]-2-(1-isopropyl-piperidin-4-ylcarbamoyl)-1H-indole-5-carboxylic acid 1-(2-methoxy-ethoxycarbonyloxy)-ethyl ester]
3	CC(C)N1CCC(NC(=O)c2cc3c(C(=O)N4CCCOCC4)cccc3n2CC(=O)Nc2ccc(Cl)cn2)CC1 [Example 7, 1-[(5-Chloro-pyridin-2-ylcarbamoyl)-methyl]-4-([1,4]oxazepane-4-carbonyl)-1H-indole-2-carboxylic acid (1-isopropyl-piperidin-4-yl)-amide]
8	CC(C)N1CCC(NC(=O)c2cc3cc(C(=O)N4CC(O)C4)ccc3n2CC(=O)Nc2ccc(Cl)cn2)CC1 [Example 11, 1-[(5-Chloro-pyridin-2-ylcarbamoyl)-methyl]-5-(3-hydroxy-azetidine-1-carbonyl)-1H-indole-2-carboxylic acid (1-isopropyl-piperidin-4-yl)-amide]
1	Cc1oc(=O)oc1COC(=O)c1cccc2c1cc(C(=O)NC1CCN(C(C)C)CC1)n2Cc1cc(-c2ccc(Cl)s2)on1 [Example 14, 1-[5-(5-Chloro-thiophen-2-yl)-isoxazol-3-ylmethyl]-2-(1-isopropyl-piperidin-4-ylcarbamoyl)-1H-indole-4-carboxylic acid 5-methyl-2-oxo-[1,3]dioxol-4-ylmethyl ester]
